{"source": "patent US10865390B2", "about": "“Alcohol dehydrogenase mutant and application thereof in synthesis of diaryl chiral alcohols” (Jiangnan University, priority 2018, dated 2020)", "type_in_all_cases": "biochemical", "key": {"[1]": {"system": "O=C(c1ccc(Cl)cc1)c1ccccn1", "experiment": "Kinetic analysis of KpADH mutant M1 with CPMK", "settings": "other: M1, NADPH, pH 7.0, 30° C.", "description": "In an embodiment of the present disclosure, the mutant includes the substitution of glycine for glutamic acid at position 214 of the alcohol dehydrogenase with the amino acid sequence shown in SEQ ID No. 2, which is named M1.\n(§1) Adopting a total reaction system of 200 μL including: 1.0 mM NADPH, 1.0 mM substrate CPMK and sodium phosphate buffer (PBS, 100 mM, pH 7.0), fully and evenly mixing, maintaining at 30° C. for 2 min, adding an appropriate amount of enzyme solution, and detecting the change in light absorption at 340 nm.\n(§2) The enzyme activity was calculated by the following formula: Enzyme activity (U)=EW×V×10^3/(6220×1);\n(§3) in the formula, EW is the change in absorbance at 340 nm in 1 min; V is the volume of a reaction solution in mL; 6220 is the molar extinction coefficient of NADPH in L/(mol·cm); and 1 is the optical path distance in cm. One activity unit (U) corresponds to the amount of enzyme required to catalyze the oxidation of 1 μmol NADPH per minute under the above conditions.\n(§4) A column used for purification was a nickel affinity column HisTrap FF crude, and purification was achieved through affinity chromatography using a histidine tag on recombinant protein. The nickel column was equilibrated with a solution A first, a crude enzyme solution was loaded, a penetrating peak was further eluted off using the solution A, and after equilibrium, a solution B (20 mM sodium phosphate, 500 mM NaCl, and 1000 mM imidazole, pH 7.4) was used for gradient elution to elute off the recombinant protein bound to the nickel column, so as to obtain the recombinant alcohol dehydrogenase mutant. The purified protein was subjected to activity measurement (CPMK as substrate, and NADPH as coenzyme) and SDS-PAGE analysis. […] The purified alcohol dehydrogenase protein was then replaced into a Tris-HCl (100 mM, pH 7.0) buffer using a Hi Trap Desalting column (GE Healthcare).\n(§5) The activity of KpADH at different substrate concentrations and coenzyme concentrations was determined, and a double reciprocal curve was made based on the reciprocal of activity and substrate concentration to calculate kinetic parameters."}, "[2]": {"system": "O=C(c1ccc(Cl)cc1)c1ccccn1", "experiment": "Kinetic analysis of KpADH mutant M6 with CPMK", "settings": "other: M6, NADPH, pH 7.0, 30° C.", "description": "(§6) In an embodiment of the present disclosure, the mutant includes the substitution of glycine for glutamic acid at position 214 of the amino acid sequence shown in SEQ ID No. 2, the substitution of cysteine for serine at position 237, the substitution of asparaginate for glutamine at position 136, the substitution of glycine for serine at position 196, and the substitution of valine for phenylalanine at position 161, which is named M6.\nas §1, §2, §3, §4, §5"}, "[3]": {"biological_target": "T1, alcohol dehydrogenase KpADH, wild type, SEQ ID No. 2 (Vanderwaltozyma polyspora, UniProt A7TM80)", "T1 sequence (A7TM80 1-342)": "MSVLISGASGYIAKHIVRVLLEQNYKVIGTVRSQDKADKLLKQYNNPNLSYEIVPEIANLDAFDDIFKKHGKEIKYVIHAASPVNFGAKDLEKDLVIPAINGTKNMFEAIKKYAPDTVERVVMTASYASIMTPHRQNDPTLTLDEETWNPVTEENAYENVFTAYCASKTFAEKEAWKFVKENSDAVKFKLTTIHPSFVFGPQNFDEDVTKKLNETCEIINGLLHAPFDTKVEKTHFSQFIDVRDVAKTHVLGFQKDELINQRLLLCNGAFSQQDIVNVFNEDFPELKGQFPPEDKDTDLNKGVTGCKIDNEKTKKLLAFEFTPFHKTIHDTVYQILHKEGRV", "experiment": "Kinetic analysis of KpADH wild type with CPMK", "settings": "NADPH, pH 7.0, 30° C.", "description": "as §1, §2, §3, §4, §5"}, "[4]": {"biological_target": "T2, alcohol dehydrogenase KpADH mutant M5 (E214G/S237C/Q136N/S196G of SEQ ID No. 2) (Vanderwaltozyma polyspora, UniProt A7TM80, E214G/Q136N/S196G/S237C)", "T2 construct": "mutant M5", "experiment": "Kinetic analysis of KpADH mutant M5 with CPMK", "settings": "NADPH, pH 7.0, 30° C.", "description": "as §6, with “136, and” for “136,”, “196,” for “196, and the substitution of valine for phenylalanine at position 161,”, “M5.” for “M6.”\nas §1, §2\nas §3, with “conditions. […]” for “conditions.”\nas §5"}, "[5]": {"biological_target": "T3, alcohol dehydrogenase KpADH mutant M7 (E214V/T215S of SEQ ID No. 2) (Vanderwaltozyma polyspora, UniProt A7TM80, E214V/T215S)", "T3 construct": "mutant M7", "experiment": "Kinetic analysis of KpADH mutant M7 with CPMK", "settings": "NADPH, pH 7.0, 30° C.", "description": "In an embodiment of the present disclosure, the mutant includes the substitution of valine for glutamic acid at position 214 of the amino acid sequence shown in SEQ ID No. 2, and the substitution of serine for threonine at position 215, which is named M7.\nas §1, §2\nas §3, with “conditions. […]” for “conditions.”\nas §5"}, "[6]": {"biological_target": "T4, alcohol dehydrogenase KpADH mutant M8 (Q136N/F161V of SEQ ID No. 1) (Vanderwaltozyma polyspora, UniProt A7TM80, F161V/Q136N)", "T4 construct": "control mutant M8", "experiment": "Kinetic analysis of KpADH mutant M8 (control example) with CPMK", "settings": "NADPH, pH 7.0, 30° C.", "description": "In an embodiment of the present disclosure, the mutant includes the substitution of asparaginate for glutamine at position 136 of alcohol dehydrogenase with an amino acid sequence shown in SEQ ID No. 1, and the substitution of valine for phenylalanine at position 161, which is named M8.\nas §1, §2\nas §3, with “conditions. […]” for “conditions.”\nas §5"}, "[7]": {"biological_target": "T5, alcohol dehydrogenase KpADH mutant M9 (S196G/S237C of SEQ ID No. 1) (Vanderwaltozyma polyspora, UniProt A7TM80, S196G/S237C)", "T5 construct": "control mutant M9", "experiment": "Kinetic analysis of KpADH mutant M9 (control example) with CPMK", "settings": "NADPH, pH 7.0, 30° C.", "description": "In an embodiment of the present disclosure, the mutant includes the substitution of glycine for serine at position 196 of the alcohol dehydrogenase with the amino acid sequence shown in SEQ ID No. 1, and the substitution of cysteine for serine at position 237, which is named M9.\nas §1, §2\nas §3, with “conditions. […]” for “conditions.”\nas §5"}}, "data": [{"molecule": "alcohol dehydrogenase KpADH mutant M1 (E214G of SEQ ID No. 2) (Vanderwaltozyma polyspora DSM 70294; E214G)", "values": [{"measurement": "Km", "setting": "[1]", "value": 520, "unit": "µM"}, {"measurement": "Vmax", "setting": "[1]", "value": 11.1, "unit": "µmol/min/mg"}, {"measurement": "kcat", "setting": "[1]", "value": 7.32, "unit": "s⁻¹"}, {"measurement": "kcat/Km", "setting": "[1]", "value": 14100, "unit": "M⁻¹ s⁻¹"}]}, {"molecule": "alcohol dehydrogenase KpADH mutant M6 (E214G/S237C/Q136N/S196G/F161V of SEQ ID No. 2) (Vanderwaltozyma polyspora DSM 70294; E214G/F161V/Q136N/S196G/S237C)", "values": [{"measurement": "Km", "setting": "[2]", "value": 1120, "unit": "µM"}, {"measurement": "Vmax", "setting": "[2]", "value": 25.2, "unit": "µmol/min/mg"}, {"measurement": "kcat", "setting": "[2]", "value": 20.1, "unit": "s⁻¹"}, {"measurement": "kcat/Km", "setting": "[2]", "value": 17900, "unit": "M⁻¹ s⁻¹"}]}, {"molecule": "O=C(c1ccc(Cl)cc1)c1ccccn1", "note": "[CPMK, (4-chlorophenyl)-(pyridin-2-yl)-methanone]", "values": [{"measurement": "Kcat", "setting": "[3]", "value": 11.8, "unit": "s⁻¹"}, {"measurement": "Km", "setting": "[3]", "value": 410, "unit": "µM"}, {"measurement": "Vmax", "setting": "[3]", "value": 17.9, "unit": "µmol/min/mg"}, {"measurement": "Kcat", "setting": "[4]", "value": 17.0, "unit": "s⁻¹"}, {"measurement": "Vmax", "setting": "[4]", "value": 21.3, "unit": "µmol/min/mg"}, {"measurement": "Kcat", "setting": "[5]", "value": 14.2, "unit": "s⁻¹"}, {"measurement": "Vmax", "setting": "[5]", "value": 21.3, "unit": "µmol/min/mg"}, {"measurement": "Kcat", "setting": "[6]", "value": 14.8, "unit": "s⁻¹"}, {"measurement": "Vmax", "setting": "[6]", "value": 22.3, "unit": "µmol/min/mg"}, {"measurement": "Kcat", "setting": "[7]", "value": 17.6, "unit": "s⁻¹"}, {"measurement": "Vmax", "setting": "[7]", "value": 26.5, "unit": "µmol/min/mg"}]}]}
